This assay deals with Acinetobacter baumannii ATCC17978. The assay can be described thus: Antimicrobial susceptibility testing: 90% growth inhibitory concentration (IC90) determination, Iso-Sensitest broth. The format is cell-based. As to the method:
Antimicrobial Susceptibility Testing:
90% Growth Inhibitory Concentration (IC90) Determination
The in vitro antimicrobial activity of the compounds was determined according to the following procedure:
The assay used a 10-points Iso-Sensitest broth medium to measure quantitatively the in vitro activity of the compounds against Acinetobacter baumannii ATCC17978 and Acinetobacter baumannii ATCC17961.
Microtiter plates were incubated at 35±2° C.
Bacterial cell growth was determined with the measurement of optical density at λ=600 nm each 20 minutes over a time course of 16 h. Growth inhibition was calculated during the logarithmic growth of the bacterial cells with determination of the concentration inhibiting 50% (IC50) and 90% (IC90) of the growth.

[1] abbreviates: 90% growth inhibitory concentration, Acinetobacter baumannii ATCC17978, Iso-Sensitest broth, OD 600 nm over 16 h, read-out: ATCC17978 IC90.
The mark [2] stands for this setting: Acinetobacter baumannii, ATCC17978, 16 h, read-out: ATCC17978 IC90, 90% growth inhibitory concentration, Acinetobacter baumannii ATCC17978, Iso-Sensitest broth, OD 600 nm over 16 h.

Counter-ions that a name gives are not always drawn. Like-named read-outs stand apart in the source and are kept apart here.

Data on 21 molecules can be found in patent US20230011869A1 (Hoffmann-La Roche Inc., priority 2018, published 2023).

Take “1-[4-[[3-[4-(cyanomethoxy)-2,3-difluoro-phenyl]imidazo[1,2-a]pyrazin-8-yl]amino]-2-methyl-benzoyl]-N-methylsulfonyl-piperidine-4-carboxamide trifluoroacetate [Example 100]”: the IC90 under setting [1] was 1.6 µM.
Still for that read-out and setting: next, `CO[C@@H]1CNC[C@H]1NC(=O)N1CCN(C(=O)c2ccc(Nc3nccn4c(-c5ccc(OC(F)F)cc5)cnc34)cc2C)CC1` (racemic) [Example 171, 4-[4-[[3-[4-(difluoromethoxy)phenyl]imidazo[1,2-a]pyrazin-8-yl]amino]-2-methyl-benzoyl]-N-[rac-(3R,4R)-4-methoxypyrrolidin-3-yl]piperazine-1-carboxamide hydrochloride]: 0.19 µM; `COc1ccc(-c2cnc3c(Nc4ccc(C(=O)N5CCN(C(=O)[C@H]6CCNC[C@H]6O)CC5)c(C)c4)nccn23)c(F)c1F` (racemic) [Example 195, [4-[[3-(2,3-difluoro-4-methoxy-phenyl)imidazo[1,2-a]pyrazin-8-yl]amino]-2-methyl-phenyl]-[4-[rac-(3S,4S)-3-hydroxypiperidine-4-carbonyl]piperazin-1-yl]methanone]: 0.29 µM.
The same measure, in the same setting: then `CCc1cc(Nc2nccn3c(-c4ccc(OCC#N)c(F)c4F)cnc23)ccc1C(=O)N1CCN(C(=O)[C@H]2CCNC[C@H]2O)CC1` (racemic) [Example 199, 2-[4-[8-[3-ethyl-4-[4-[rac-(3S,4S)-3-hydroxypiperidine-4-carbonyl]piperazine-1-carbonyl]anilino]imidazo[1,2-a]pyrazin-3-yl]-2,3-difluoro-phenoxy]acetonitrile formate], with 0.18 µM.
On to `Cc1cc(Nc2nccn3c(-c4ccc(OC(F)F)cc4)cnc23)ccc1C(=O)N1CCC(C(=O)N[C@@H]2C(O)O[C@H](CO)[C@@H](O)[C@@H]2O)CC1` (mixture of isomers) [Example 351, 1-[4-[[3-[4-(difluoromethoxy)phenyl]imi-dazo[1,2-a]pyrazin-8-yl]amino]-2-methylbenzoyl]-N-[rac-(3R,4S,5R,6S)-2,4,5-trihydroxy-6-(hydroxymethyl)oxan-3-yl]piperidine-4-carboxamide], for which the IC90 under setting [2] turned out to be 0.72 µM.
On the same count and under the same terms, then `Cc1cc(Nc2nccn3c(-c4ccc(OC(F)F)cc4)cnc23)ccc1C(=O)N1CCC(C(=O)N2C[C@H](O)[C@@H](O)C2)CC1` (racemic) [Example 415, [4-[[3-[4-(difluoromthoxy)phenyl]imi-dazo[1,2-a]pyrazin-8-yl]amino]-2-methylphenyl]-[4-[rac-(3R,4R)-3,4-dihydroxypyrrolidine-1-carbonyl]piperidin-1-yl]methanone], with 0.78 µM.
On to `Cc1cc(Nc2nccn3c(-c4ccc(OC(F)F)cc4)cnc23)ccc1C(=O)N1CC[C@@H](C(=O)N2CCNCC2)[C@H](O)C1` (racemic) [Example 438, [4-[[3-[4-(difluoromethoxy)phenyl]imi-dazo[1,2-a]pyrazin-8-yl]amino]-2-methylphenyl]-[rac-(3R,4S)-3-hydroxy-4-(piperazine-1-carbonyl)piperidin-1-yl]methanone; 2,2,2-trifluoroacetic acid], for which, under setting [1], the IC90 is 0.83 µM.
On to `CNCCNC(=O)[C@@H]1CCN(C(=O)c2ccc(Nc3nccn4c(-c5ccc(OC)c(F)c5)cnc34)cc2C)C[C@@H]1O` (racemic) [Example 439, rac-(3R,4R)-1-[4-[[3-(3-fluoro-4-methoxyphenyl)imidazo[1,2-a]pyrazin-8-yl]amino]-2-methylbenzoyl]-3-hydroxy-N-[2-(methyl-amino)ethyl]piperidine-4-carboxamide; 2,2,2-trifluoroacetic acid], for which the IC90 under setting [2] came out at 0.91 µM.
Regarding `COc1ccc(-c2cnc3c(Nc4ccc(C(=O)N5CC[C@@H](C(=O)N6CCNCC6)[C@H](O)C5)c(C)c4)nccn23)cc1F` (racemic) [Example 440, [4-[[3-(3-fluoro-4-methoxyphenyl)imidazo[1,2-a]pyrazin-8-yl]amino]-2-methylphenyl]-[rac-(3R,4S)-3-hydroxy-4-(piperazine-1-carbonyl)piperidin-1-yl]methanone], under setting [1], the IC90 came to 0.95 µM.
The same measure, in the same setting: next, `CNCCNC(=O)[C@@H]1CCN(C(=O)c2ccc(Nc3nccn4c(-c5ccc(OC)c(F)c5)cnc34)cc2C)C[C@H]1O` (racemic) [Example 449, rac-(3R,4S)-1-[4-[[3-(3-fluoro-4-methoxyphenyl)imidazo[1,2-a]pyrazin-8-yl]amino]-2-methylbenozyl]-3-hydroxy-N-[2-(methylamino)ethyl]piperidin-4-carboxamide; 2,2,2-trifluoroacetic acid]: 2.2 µM.
Same read-out and setting: then `Cc1cc(Nc2nccn3c(-c4ccc(OCC#N)c(F)c4F)cnc23)ccc1C(=O)N1CCN(C(=O)[C@@H]2CCNC[C@H]2O)CC1` (racemic) [Example 472, 2-[2,3-difluoro-4-[8-[3-methyl-4-[4-[rac-(3R,4S)-3-hydroxypiperidine-4-carbonyl]piperazine-1-carbonyl]anilino]imidazo[1,2-a]pyrazin-3-yl]phenoxy]acetonitrile; for-mic acid], with 0.23 µM.
`COc1ccc(-c2cnc3c(Nc4ccc(C(=O)N5CCN(C(=O)[C@H]6CCNC[C@@H]6O)CC5)c(C)c4)nccn23)c(F)c1F` (racemic) [Example 489, [4-[[3-(2,3-difluoro-4-methoxyphenyl)imidazo[1,2-a]pyrazin-8-yl]amino]-2-methylphenyl]-[4-[rac-(3R,4S)-3-hydroxypiperidine-4-carbonyl]piperazin-1-yl]methanone; hydrochloride]: the IC90 under setting [2] is 0.27 µM.
As to `CCc1cc(Nc2nccn3c(-c4ccc(OCC#N)c(F)c4F)cnc23)ccc1C(=O)N1CCN(C(=O)[C@H]2CCNC[C@@H]2O)CC1` (racemic) [Example 498, 2-[4-[8-[3-ethyl-4-[4-[rac-(3R,4S)-3-hydroxypiperidine-4-carbonyl]piperazine-1-carbonyl]anilino]imidazo[1,2-a]pyrazin-3-yl]-2,3-difluorophenoxy]acetonitrile; formic acid], the IC90 under setting [2] came to 0.33 µM.
In the case of `Cc1cc(Nc2nccn3c(-c4ccc(OC(F)F)cc4)cnc23)ccc1C(=O)N1CC[C@@H](C(=O)N2CCNCC2)[C@@H](O)C1` (racemic) [Example 530, [4-[[3-[4-(difluoromethoxy)phenyl]imi-dazo[1,2-a]pyrazin-8-yl]amino]-2-methylphenyl]-[rac-(3R,4R)-3-hydroxy-4-(piperazine-1-carbonyl)piperidin-1-yl]methanone; 2,2,2-trifluoroacetic acid], under setting [1], the IC90 came out at 0.63 µM.
Still for that read-out and setting: next, `COc1ccc(-c2cnc3c(Nc4ccc(C(=O)N5CCN(C(=O)C(CC(=O)O)NC(=O)[C@@H](N)CCCCN)CC5)c(C)c4)nccn23)c(F)c1F` (mixture of isomers) [Example 534, 4-[4-[4-[[3-(2,3-difluoro-4-methoxyphenyl)imidazo[1,2-a]pyrazin-8-yl]amino]-2-methylbenzoyl]piperazin-1-yl]-4-oxo-3-[[rac-(2R)-2,6-diaminohexanoyl]amino]bu-tanoic acid; hydrochloride]: 2.3 µM; `COc1ccc(-c2cnc3c(Nc4ccc(C(=O)N5CCN(C(=O)C(CCC(=O)O)NC(=O)[C@@H](N)CCCCN)CC5)c(C)c4)nccn23)c(F)c1F` (mixture of isomers) [Example 536, 5-[4-[4-[[3-(2,3-difluoro-4-methoxyphenyl)imidazo[1,2-a]pyrazin-8-yl]amino]-2-methylbenzoyl]piperazin-1-yl]-5-oxo-4-[[rac-(2R)-2,6-diaminohexanoyl]amino]pen-tanoic acid; hydrochloride]: 4.1 µM.
On to `CCc1cc(Nc2nccn3c(-c4ccc(OC)c(F)c4F)cnc23)ccc1C(=O)N1CCN(C(=O)[C@@H]2CCNC[C@@H]2O)CC1` (racemic) [Example 547, [4-[[3-(2,3-difluoro-4-methoxyphenyl)imidazo[1,2-a]pyrazin-8-yl]amino]-2-ethylphenyl]-[4-[rac-(3R,4R)-3-hydroxypiperidine-4-carbonyl]piperazin-1-yl]methanone; hydrochloride], for which, under setting [1], the IC90 is 0.34 µM.
The same measure, in the same setting: next, `Cc1cc(Nc2nccn3c(-c4ccc(OCC#N)c(F)c4F)cnc23)ccc1C(=O)N1CCN(C(=O)[C@@H]2CCNC[C@@H]2O)CC1` (relative stereo) [Example 196, 2-[2,3-difluoro-4-[8-[3-methyl-4-[4-[rac-(3R,4R)-3-hydroxypiperidine-4-carbonyl]piperazine-1-carbonyl]anilino]imidazo [1,2-a]pyrazin-3-yl]phenoxy] acetonitrile formate]: 0.27 µM; `COc1ccc(-c2cnc3c(Nc4ccc(C(=O)N5CCN(C(=O)[C@@H]6CCNC[C@@H]6O)CC5)c(C)c4)nccn23)c(Cl)c1F` (relative stereo) [Example 218, [4-[[3-(2-chloro-3-fluoro-4-methoxy-phenyl)imidazo[1,2-a]pyrazin-8-yl]amino]-2-methyl-phenyl]-[4-[(3R,4R)-3-hydroxypiperidine-4-carbonyl]piperazin-1-yl]methanone]: 0.22 µM; `Cc1cc(Nc2nccn3c(-c4ccc(OC(F)F)cc4)cnc23)ccc1C(=O)N1CCC(C(=O)O)CC1` [Example 1, 1-(4-((3-(4-(difluoromethoxy)phenyl)imidazo[1,2-a]pyrazin-8-yl)amino)-2-methylbenzoyl)piperidine-4-carboxylic acid]: 1.7 µM.
Regarding `COc1ccc(-c2cnc3c(Nc4ccc(C(=O)N5CCC(C(=O)O)CC5)c(C)c4)nccn23)cc1F` [Example 2, 1-(4-((3-(3-fluoro-4-methoxyphenyl)imidazo[1,2-a]pyrazin-8-yl)amino)-2-methylbenzoyl)piperidine-4-carboxylic acid], the IC90 under setting [1] worked out at 1.7 µM.
